Source: publication PMC5991599, “Anti‐tumor efficacy of a novel CLK inhibitor via targeting RNA splicing and MYC‐dependent vulnerability” (EMBO Molecular Medicine, 2018)

Columns and labels:
BJ = assay: Cell proliferation assay (CellTiter-Glo); format: cell-based; settings: Homo sapiens, 72 h treatment, normal skin fibroblast, read-out: IC50 (growth inhibition)
Description: (§1) Cell proliferation assay, Caspase-3/7 assay
(§2) Cell proliferation was measured using CellTiter-Glo luminescent cell viability
(§3) assay (Promega, Fitchburg, WI, U.S.A.). Caspase-3/7 activity was measured using
(§4) Caspase-Glo 3/7 Assay Systems (Promega). Luminescence of each well was measured
(§5) using ARVO Light (PerkinElmer Inc., Waltham, MA, U.S.A.). The IC50 value and 95%
(§6) confidential intervals were estimated using GraphPad Prism 5 (GraphPad Software,
(§7) Inc., La Jolla, CA, U.S.A.). […]

MDA-MB-468 = assay: Cell proliferation assay (CellTiter-Glo); format: cell-based; settings: Homo sapiens, 72 h treatment, breast cancer, read-out: IC50 (growth inhibition)
Description: as §1, §2, §3, §4, §5, §6, §7

786-O = assay: Cell proliferation assay (CellTiter-Glo); format: cell-based; settings: Homo sapiens, 786-0; 72 h treatment; kidney cancer; read-out: IC50 (growth inhibition)
Description: as §1, §2, §3, §4, §5, §6, §7

COLO320HSR = assay: Cell proliferation assay (CellTiter-Glo); format: cell-based; settings: Homo sapiens, COLO-320-HSR; 72 h treatment; colorectal cancer; read-out: IC50 (growth inhibition)
Description: as §1, §2, §3, §4, §5, §6, §7

Wi38 = assay: Cell proliferation assay (CellTiter-Glo); format: cell-based; settings: Homo sapiens, WI-38; 72 h treatment; normal lung fibroblast; read-out: IC50 (growth inhibition)
Description: as §1, §2, §3, §4, §5, §6, §7

NCI-H1048 = assay: Cell proliferation assay (CellTiter-Glo); format: cell-based; settings: Homo sapiens, 72 h treatment, lung cancer, read-out: IC50 (growth inhibition)
Description: as §1, §2, §3, §4, §5, §6, §7

[1] = Pharmacokinetics evaluation, unbound plasma concentration after oral administration; format: in vivo; settings: nude mice, mean, calculated using protein binding
Description: The black dotted line indicates the relative ATP value prior to treatment (Day 0). • C The number of AS events modulated by T‐025 treatment for 6 h in MDA‐MB‐468 cells. The numbers of AS events with a BF > 20 and |ΔPSI| > 0.1 were counted and categorized according to the AS type (SE, skipped exon; RI, retained intron; A5′SS, alternative 5′‐splice‐site; A3′SS, alternative 3′‐splice‐site; MEE, mutually exclusive exon; AFE, alternative first exon; ALE, alternative last exon). • D–F MDA‐MB‐468 xenograft tumors treated with 50 mg/kg of T‐025 were sampled and analyzed by immunohistochemistry […], immunoblotting (E), or RT–PCR (F). Representative images of pCLK2 stained tumors and scale bar (30 μm) are shown. Also shown: The mean unbound plasma T‐025 concentration was calculated using protein binding after oral administration. • G, H Anti‐tumor efficacy of T‐025 in MDA‐MB‐468 xenograft models. T‐025 was administered twice daily on 2 days per week (red arrows). Tumor volume (G) and body weight (H) during the efficacy study are shown as means ± s.e.m. (n = 5). Data information: In (B, D, and F), data are shown as the means ± s.d. of three independent experiments (n = 3). In (G and H), an unpaired Student's t‐test was performed.Source data are available online for this figure. TEXT PRINTED IN THE PICTURE: (D) T-025: Unbound plasma Conc. (nmol/L): 554 (50 mg/kg; 2 h); Unbound plasma Conc. (nmol/L): 97 (50 mg/kg; 4 h); Unbound plasma Conc. (nmol/L): 105 (50 mg/kg; 8 h); Unbound plasma Conc. (nmol/L): 0 (50 mg/kg; 24 h)
Then, we evaluated T‐025 in an animal model.

`CNc1nc(NCc2ncccn2)c2c(-c3ccc4ncccc4c3)c[nH]c2n1` [T-025, N ^2‐methyl‐N ^4‐[pyrimidin‐2‐ylmethyl]‐5‐[quinolin‐6‐yl]‐7H‐pyrrolo[2,3‐d]pyrimidine‐2,4‐diamine] showed an IC50 (BJ) of 355 nM, an IC50 (MDA-MB-468) of 79.8 nM and an IC50 (786-O) of 340 nM. For the same compound, the IC50 (COLO320HSR) was 91.8 nM, the IC50 (Wi38) was 257 nM and the IC50 (NCI-H1048) was 84.4 nM. For the same compound, the “Unbound plasma Conc.” value ([1]; oral 50 mg/kg, 8 h) was 104 nmol/L, the concentration at 2 h ([1]; nude, mouse, plasma, po, 50 mg/kg, 2 h, read-out: Unbound plasma Conc.) was 554 nM and the concentration at 4 h ([1]; nude, mouse, plasma, po, 50 mg/kg, 4 h, read-out: Unbound plasma Conc.) was 97 nM. For the same compound, the concentration at 8 h ([1]; nude, mouse, plasma, po, 50 mg/kg, 8 h, read-out: Unbound plasma Conc.) was 105 nM and the concentration at 24 h ([1]; nude, mouse, plasma, po, 50 mg/kg, 24 h, read-out: Unbound plasma Conc.) was 0 nM.
